Patent US4594338A, “Thioether derivatives of tylosin” (priority 1984, dated 1986)
Values after ≈ are worked out from the molar mass of the structure shown.

What was measured:
Type in all cases: cell-based
[1] = tested on: Micrococcus luteus ATCC 9341; assay: Minimum inhibitory concentration, Micrococcus luteus ATCC 9341; conditions: ATCC9341
Description: (§1) The compounds of formula (I) show antibacterial activity against both gram-positive and gram-negative bacteria. The following Tables illustrate minimum inhibitory concentrations (MIC's) for a representative sample of the compounds of the invention against gram-positive and gram-negative bacteria as well as bacteria resistant to antibiotics. In the Tables abbreviations with the symbol r attached designate resistant bacterial strains.

[2] = tested on: Proteus vulgaris IFO 3167; assay: Minimum inhibitory concentration, Proteus vulgaris IFO 3167; conditions: IFO3167
Description: as §1

[3] = tested on: Staphylococcus aureus ATCC 6538P; assay: Minimum inhibitory concentration, Staphylococcus aureus ATCC 6538P; conditions: ATCC6538P
Description: as §1

[4] = tested on: Bacillus cereus IFO 3001; assay: Minimum inhibitory concentration, Bacillus cereus IFO 3001; conditions: IFO3001
Description: as §1

[5] = tested on: Salmonella typhirium KB 20; assay: Minimum inhibitory concentration, Salmonella typhirium KB 20; conditions: KB20, read-out: minimum inhibitory concentration (MIC)
Description: as §1

[6] = tested on: Bacillus subtilis PCI 219; assay: Minimum inhibitory concentration, Bacillus subtilis PCI 219; conditions: PCI219
Description: as §1

[7] = tested on: Mycobacterium smegmatis ATCC 607; assay: Minimum inhibitory concentration, Mycobacterium smegmatis ATCC 607; conditions: Mycolicibacterium smegmatis, ATCC607
Description: as §1

[8] = tested on: Klebsiella pneumoniae ATCC 10031; assay: Minimum inhibitory concentration, Klebsiella pneumoniae ATCC 10031; conditions: ATCC10031
Description: as §1

[9] = tested on: Escherichia coli NIHJ; assay: Minimum inhibitory concentration, Escherichia coli NIHJ
Description: as §1

[10] = tested on: Staphylococcus aureus KB 199(EM^r); assay: Minimum inhibitory concentration, Staphylococcus aureus KB 199(EM^r); conditions: Staphylococcus aureus KB 199, erythromycin-resistant (EM^r)
Description: as §1

[11] = tested on: Klebsiella pneumoniae PCI 602; assay: Minimum inhibitory concentration, Klebsiella pneumoniae PCI 602; conditions: PCI602
Description: as §1

[12] = tested on: Pseudomonas aeruginosa P-3; assay: Minimum inhibitory concentration, Pseudomonas aeruginosa P-3; conditions: P3
Description: as §1

[13] = tested on: Staphylococcus aureus KB 221 (MC, TC, CP, KM^r); assay: Minimum inhibitory concentration against resistant strain Staphylococcus aureus KB 221
Description: as §1

[14] = tested on: Staphylococcus aureus KB 219 (MC, TC, PC, CP^r); assay: Minimum inhibitory concentration against resistant strain Staphylococcus aureus KB 219
Description: as §1

[15] = tested on: Staphylococcus aureus KB 224 (MC, TC, KM, SM^r); assay: Minimum inhibitory concentration against resistant strain Staphylococcus aureus KB 224
Description: as §1

[16] = tested on: Staphylococcus aureus KB 191 (MC, TC^r); assay: Minimum inhibitory concentration against resistant strain Staphylococcus aureus KB 191
Description: as §1

| Compound | MIC [1] [mg/L] | MIC [2] [mg/L] | MIC [3] [mg/L] | MIC [4] [mg/L] | MIC [5] [mg/L] | MIC [6] [mg/L] | MIC [7] [mg/L] | MIC [8] [mg/L] | MIC [9] [mg/L] | MIC [10] [mg/L] | MIC [11] [mg/L] | MIC [12] [mg/L] | MIC [13] [mg/L] | MIC [14] [mg/L] | MIC [15] [mg/L] | MIC [16] [mg/L] |
| --- | --- | --- | --- | --- | --- | --- | --- | --- | --- | --- | --- | --- | --- | --- | --- | --- |
| CCC1OC(=O)CC(O)C(C)C(OC2OC(C)C(OC3CC(C)(O)C(O)C(C)O3)C(N(C)C)C2O)C(CC(Sc2ccccc2)Sc2ccccc2)CC(C)C(=O)C=CC(C)=CC1COC1OC(C)C(O)C(OC)C1OC (stereo not drawn) [Compound C, Tylosin Diphenyl Thioacetal] | 0.2 (≈ 0.179 µM) | > 100 | 12.5 (≈ 11.2 µM) | 0.78 (≈ 0.697 µM) | > 100 | 0.78 (≈ 0.697 µM) | 50 (≈ 44.7 µM) | > 100 | > 100 | > 50 | > 100 | – | – | – | – | – |
| CCSC1CC(=O)C(C)CC(CC=O)C(OC2OC(C)C(O)C(N(C)C)C2O)C(C)C(O)CC(=O)OC(CC)C(COC2OC(C)C(O)C(OC)C2OC)C=C1C (stereo not drawn) [Compound N, 11-(Ethylthio)-10,11-dihydrodemycarosyltylosin] | 0.2 (≈ 0.24 µM) | > 100 | 1.56 (≈ 1.87 µM) | 0.78 (≈ 0.935 µM) | > 100 | 0.78 (≈ 0.935 µM) | > 100 | 50 (≈ 59.9 µM) | > 100 | > 100 | > 100 | > 100 | – | – | – | – |
| CCC1OC(=O)CC(O)C(C)C(OC2OC(C)C(O)C(N(C)C)C2O)C(CC=O)CC(C)C(=O)CC(Sc2ccc(N)cc2)C(C)=CC1COC1OC(C)C(O)C(OC)C1OC (stereo not drawn) [Compound P, 11-(p-Aminophenylthio)-10,11-dihydrodemycarosyltylosin] | 0.2 (≈ 0.223 µM) | > 100 | 3.12 (≈ 3.48 µM) | 0.78 (≈ 0.869 µM) | > 100 | 3.12 (≈ 3.48 µM) | > 100 | 100 (≈ 111 µM) | > 100 | > 100 | > 100 | > 100 | – | – | – | – |
| CCC1OC(=O)CC(O)C(C)C(OC2OC(C)C(O)C(N(C)C)C2O)C(CC=O)CC(C)C(=O)CC(Sc2ccccc2)C(C)=CC1COC1OC(C)C(O)C(OC)C1OC (stereo not drawn) [Compound Q, 10,11-Dihydro-11-(phenylthio)demycarosyltylosin] | < 0.1 | 50 (≈ 56.7 µM) | 0.78 (≈ 0.884 µM) | 0.2 (≈ 0.227 µM) | 100 (≈ 113 µM) | 0.78 (≈ 0.884 µM) | > 100 | 100 (≈ 113 µM) | 100 (≈ 113 µM) | > 100 | 100 (≈ 113 µM) | > 100 | – | – | – | – |
| CCSC1CC(=O)C(C)CC(CC=O)C(OC2OC(C)C(OC3CC(C)(O)C(O)C(C)O3)C(N(C)C)C2O)C(C)C(O)CC(=O)OC(CC)C(COC2OC(C)C(O)C(OC)C2OC)C=C1C (stereo not drawn) [Compound R, 11-(Ethylthio)-10,11-dihydrotylosin] | < 0.1 | > 100 | 1.56 (≈ 1.59 µM) | 0.78 (≈ 0.797 µM) | > 100 | 0.78 (≈ 0.797 µM) | 100 (≈ 102 µM) | 100 (≈ 102 µM) | 100 (≈ 102 µM) | > 100 | 100 (≈ 102 µM) | > 100 | – | – | – | – |
| CCC1OC(=O)CC(O)C(C)C(OC2OC(C)C(OC3CC(C)(O)C(O)C(C)O3)C(N(C)C)C2O)C(CC=O)CC(C)C(=O)CC(Sc2ccccc2)C(C)=CC1COC1OC(C)C(O)C(OC)C1OC (stereo not drawn) [Compound S, 10,11-Dihydro-11-(phenylthio)tylosin] | < 0.1 | 100 (≈ 97.4 µM) | 1.56 (≈ 1.52 µM) | 0.4 (≈ 0.39 µM) | 100 (≈ 97.4 µM) | 0.4 (≈ 0.39 µM) | 50 (≈ 48.7 µM) | 100 (≈ 97.4 µM) | 100 (≈ 97.4 µM) | 50 (≈ 48.7 µM) | 100 (≈ 97.4 µM) | > 100 | 50 (≈ 48.7 µM) | 100 (≈ 97.4 µM) | 50 (≈ 48.7 µM) | 50 (≈ 48.7 µM) |
| CCC1OC(=O)CC(O)C(C)C(OC2OC(C)C(OC3CC(C)(O)C(O)C(C)O3)C(N(C)C)C2O)C(CC=O)CC(C)C(=O)CC(Sc2ccc(Cl)cc2)C(C)=CC1COC1OC(C)C(O)C(OC)C1OC (stereo not drawn) [Compound T, 11-(p-Chlorophenylthio)-10,11-dihydrotylosin] | < 0.1 | 50 (≈ 47.1 µM) | 3.12 (≈ 2.94 µM) | 0.4 (≈ 0.377 µM) | 100 (≈ 94.3 µM) | 0.4 (≈ 0.377 µM) | 50 (≈ 47.1 µM) | 100 (≈ 94.3 µM) | 100 (≈ 94.3 µM) | 25 (≈ 23.6 µM) | 100 (≈ 94.3 µM) | > 100 | – | 50 (≈ 47.1 µM) | 25 (≈ 23.6 µM) | 25 (≈ 23.6 µM) |
| CCC1OC(=O)CC(O)C(C)C(OC2OC(C)C(OC3CC(C)(O)C(O)C(C)O3)C(N(C)C)C2O)C(CC=O)CC(C)C(=O)CC(Sc2ccc(N)cc2)C(C)=CC1COC1OC(C)C(O)C(OC)C1OC (stereo not drawn) [Compound U, 11-(p-Aminophenylthio)-10,11-dihydrotylosin] | 0.78 (≈ 0.749 µM) | > 100 | 6.25 (≈ 6 µM) | 1.56 (≈ 1.5 µM) | > 100 | 0.4 (≈ 0.384 µM) | > 100 | > 100 | > 100 | > 100 | > 100 | > 100 | – | 50 (≈ 48 µM) | 25 (≈ 24 µM) | 25 (≈ 24 µM) |
| CCC1OC(=O)CC(O)C(C)C(OC2OC(C)C(OC3CC(C)(O)C(O)C(C)O3)C(N(C)C)C2O)C(CC=O)CC(C)C(=O)CC(Sc2ccc(C)cc2)C(C)=CC1COC1OC(C)C(O)C(OC)C1OC (stereo not drawn) [Compound V, 10,11-Dihydro-11-(p-methylphenylthio)tylosin] | < 0.1 | 50 (≈ 48.1 µM) | 3.12 (≈ 3 µM) | 0.4 (≈ 0.384 µM) | 100 (≈ 96.1 µM) | 0.4 (≈ 0.384 µM) | 50 (≈ 48.1 µM) | 100 (≈ 96.1 µM) | 100 (≈ 96.1 µM) | 25 (≈ 24 µM) | 100 (≈ 96.1 µM) | > 100 | – | – | – | – |
| CCC1OC(=O)CC(O)C(C)C(OC2OC(C)C(OC3CC(C)(O)C(O)C(C)O3)C(N(C)C)C2O)C(CC=O)CC(C)C(=O)CC(Sc2ccc(OC)cc2)C(C)=CC1COC1OC(C)C(O)C(OC)C1OC (stereo not drawn) [Compound W, 10,11-Dihydro-11-(p-methoxyphenylthio)tylosin] | < 0.1 | 50 (≈ 47.3 µM) | 3.12 (≈ 2.95 µM) | 0.4 (≈ 0.379 µM) | 100 (≈ 94.7 µM) | 0.4 (≈ 0.379 µM) | > 100 | 100 (≈ 94.7 µM) | 100 (≈ 94.7 µM) | 50 (≈ 47.3 µM) | 100 (≈ 94.7 µM) | > 100 | – | 100 (≈ 94.7 µM) | 50 (≈ 47.3 µM) | 50 (≈ 47.3 µM) |
| CCC1OC(=O)CC(O)C(C)C(OC2OC(C)C(O)C(N(C)C)C2O)C(CC=O)CC(C)C(=O)CC(SCCO)C(C)=CC1COC1OC(C)C(O)C(OC)C1OC (stereo not drawn) [O, 10,11-Dihydro-11-(2-hydroxyethylthio)demycarosyltylosin] | 0.4 (≈ 0.471 µM) | > 100 | 12.5 (≈ 14.7 µM) | 3.12 (≈ 3.67 µM) | > 100 | 12.5 (≈ 14.7 µM) | > 100 | > 100 | > 100 | > 100 | > 100 | > 100 | – | – | – | – |
